Test results taken from patent publication US20250019385A1, “SPIROCYCLIC ANNULATED 2-AMINO-3-CYANO THIOPHENES AND DERIVATIVES FOR THE TREATMENT OF CANCER” (Boehringer Ingelheim International GmbH, priority 2023, published 2025).

system: not listed separately; assay: Metabolic (microsomal) stability assay, human liver microsomes (HLM); format: in vitro ADME; conditions: 1 μM test compound, predicted clearance as percent of liver blood flow
Description: The metabolic degradation of the test compound is assayed at 37° C. with pooled liver microsomes (mouse (MLM), rat (RLM) or human (HLM)). The final incubation volume of 48 μL per time point contains TRIS buffer (pH 7.5; 0.1 M), magnesium chloride (6.5 mM), microsomal protein (0.5 mg/mL for mouse/rat, 1 mg/mL for human specimens) and the test compound at a final concentration of 1 μM. Following a short preincubation period at 37° C., the reactions are initiated by addition of 12 μL beta-nicotinamide adenine dinucleotide phosphate, reduced form (NADPH, 10 mM) and terminated by transferring an aliquot into solvent after different time points (0, 5, 15, 30, 60 min). Additionally, the NADPH-independent degradation is monitored in incubations without NADPH, terminated at the last time point by addition of acetonitrile. The quenched incubations are pelleted by centrifugation (4,000 rpm, 15 min). An aliquot of the supernatant is assayed by LC-MS/MS to quantify the concentration of parent compound in the individual samples.
In vitro intrinsic clearance (CLint,in vitro) is calculated from the time course of the disappearance of the test drug during the microsomal incubation. Each plot is fitted to the first-order elimination rate constant as C(t)=C0*exp(−ke*t), where C(t) and C0 are the concentration of unchanged test drug at incubation time t and that at preincubation and ke is the disappearance rate constant of the unchanged drug. Subsequently, CLint, in vitro (μL min^−1·amount protein) values are converted to predicted CLint,in vivo (mL min^−1·kg^−1) from incubation parameters according to the equation CLint, in vivo=CLint, in vitro×(incubation volume (mL)/amount protein (mg))×(amount protein (mg)/g liver tissue)×(liver weight/body wt.).
For better across species comparison the predicted clearance is expressed as percent of the liver blood flow [% QH] (mL min^−1·kg^−1) in the individual species. In general, high stability (corresponding to low % QH) of the compounds across species is desired.

Question: Which “HLM QH” value does the source give for `CO[C@H]1C[C@H](n2c(=O)n(C)c3c(O[C@@H](C)[C@@H]4CCCN4C)nc(-c4onc5c4CCC[C@@]54CCCc5sc(N)c(C#N)c54)nc32)C1` [I-16] here?
Answer: <24%

Question: With `C[C@H](Oc1nc(-c2onc3c2CCC[C@@]32CCCc3sc(N)c(C#N)c32)nc2c1[nH]c(=O)n2[C@@H]1CCOC1)[C@@H]1CCCN1C` [I-8] as the compound, how does the “HLM QH” value read?
Answer: <24%

Question: Which “HLM QH” value does the source give for `C[C@H](Oc1nc(-c2onc3c2CCC[C@@]32CCCc3sc(N)c(C#N)c32)nc2c1n(C)c(=O)n2[C@@]12COC[C@@H]1C2)[C@@H]1CCCN1C` [I-29] here?
Answer: <24%

Question: Which “HLM QH” value does the source give for `C[C@H](Oc1nc(-c2noc3c2CCC[C@@]32CCCc3sc(N)c(C#N)c32)nc2c1CCCO[C@]21CCOC1)[C@@H]1CCCN1C` [II-10] here?
Answer: 47%

Question: For `C[C@H](Oc1nc(-c2onc3c2CCC[C@@]32CCCc3sc(N)c(C#N)c32)nc2c1n(C)c(=O)n2[C@@H]1CCCOC1)[C@@H]1CCCN1C` [I-12], which “HLM QH” value is on record?
Answer: <24%

system: AsPC-1 cells; assay: AsPC-1 CTG proliferation assay (120 h) (pancreatic cancer, G12D); format: cell-based; conditions: Homo sapiens, ASPC1
Description: (§1) AsPC-1 cells (ATCC CRL-1682) are dispensed into black 384-well plates, flat and clear bottom (Greiner, PNr. 781091) at a density of 500 cells per well in 60 μl RPMI ATCC-Formulation (PAN P04-18047)+10% FCS (fetal calf serum, HyClone, SH30084.03). Cells are incubated overnight at 37° C. in a humidified tissue culture incubator at 5% CO2. Compounds (10 mM stock in DMSO) are added at logarithmic dose series using the ECHO acoustic liquid handler system (Beckman Coulter), normalizing for added DMSO and including DMSO controls. All compound treatments are performed in technical duplicates. For the TO time point measurement, untreated cells are analyzed at the time of compound addition. Plates are incubated for 120 h, and cell viability is measured using CellTiter-Glo luminescent cell viability reagent (Promega product code G7570). Viability (stated as percent of control) is defined as relative luminescence units RLU of each well divided by the RLU of cells in DMSO controls. IC50 values are determined from viability measurements by non-linear regression using a four-parameter model.
(§2) IC50 values of representative compounds according to the invention measured with these assays in the indicated cell lines are presented in Table 46.

Question: With `CO[C@H]1C[C@H](n2c(=O)n(C)c3c(O[C@@H](C)[C@@H]4CCCN4C)nc(-c4onc5c4CCC[C@@]54CCCc5sc(N)c(C#N)c54)nc32)C1` [I-16] as the compound, how does the IC50 read?
Answer: 3990 nM

Question: For `C[C@H](Oc1nc(-c2onc3c2CCC[C@@]32CCCc3sc(N)c(C#N)c32)nc2c1[nH]c(=O)n2[C@@H]1CCOC1)[C@@H]1CCCN1C` [I-8], which IC50 is on record?
Answer: 1260 nM

Question: Which IC50 does the source give for `C[C@H](Oc1nc(-c2onc3c2CCC[C@@]32CCCc3sc(N)c(C#N)c32)nc2c1n(C)c(=O)n2[C@@]12COC[C@@H]1C2)[C@@H]1CCCN1C` [I-29] here?
Answer: 322 nM

Question: Which IC50 does the source give for `C[C@H](Oc1nc(-c2noc3c2CCC[C@@]32CCCc3sc(N)c(C#N)c32)nc2c1CCCO[C@]21CCOC1)[C@@H]1CCCN1C` [II-10] here?
Answer: 264 nM

Question: With `C[C@H](Oc1nc(-c2onc3c2CCC[C@@]32CCCc3sc(N)c(C#N)c32)nc2c1n(C)c(=O)n2[C@@H]1CCCOC1)[C@@H]1CCCN1C` [I-12] as the compound, how does the IC50 read?
Answer: 326 nM

system: SK-CO-1 cells; assay: SK-CO-1 CTG proliferation assay (120 h) (CRC, G12V); format: cell-based; conditions: Homo sapiens
Description: as §1, with “SK—CO-1” for “AsPC-1”, “HTB-39)” for “CRL-1682)”, “EMEM (Sigma M5650)+10%” for “RPMI ATCC-Formulation (PAN P04-18047)+10%”
as §2

Question: Which IC50 does the source give for `CO[C@H]1C[C@H](n2c(=O)n(C)c3c(O[C@@H](C)[C@@H]4CCCN4C)nc(-c4onc5c4CCC[C@@]54CCCc5sc(N)c(C#N)c54)nc32)C1` [I-16] here?
Answer: 243 nM

Question: Which IC50 does the source give for `C[C@H](Oc1nc(-c2onc3c2CCC[C@@]32CCCc3sc(N)c(C#N)c32)nc2c1[nH]c(=O)n2[C@@H]1CCOC1)[C@@H]1CCCN1C` [I-8] here?
Answer: 19 nM

Question: With `C[C@H](Oc1nc(-c2onc3c2CCC[C@@]32CCCc3sc(N)c(C#N)c32)nc2c1n(C)c(=O)n2[C@@]12COC[C@@H]1C2)[C@@H]1CCCN1C` [I-29] as the compound, how does the IC50 read?
Answer: 1 nM

Question: Which IC50 does the source give for `C[C@H](Oc1nc(-c2noc3c2CCC[C@@]32CCCc3sc(N)c(C#N)c32)nc2c1CCCO[C@]21CCOC1)[C@@H]1CCCN1C` [II-10] here?
Answer: 4 nM

Question: With `C[C@H](Oc1nc(-c2onc3c2CCC[C@@]32CCCc3sc(N)c(C#N)c32)nc2c1n(C)c(=O)n2[C@@H]1CCCOC1)[C@@H]1CCCN1C` [I-12] as the compound, how does the IC50 read?
Answer: 5 nM

system: NCI-H358 cells; assay: NCI-H358 CTG proliferation assay (120 h) (NSCLC, G12C); format: cell-based; conditions: Homo sapiens
Description: as §1, with “NCI-H358” for “AsPC-1”, “No. CRL-5807)” for “CRL-1682)”, “200” for “500”, “RPMI-1640” for “RPMI”, “(Gibco #A10491)+10%” for “(PAN P04-18047)+10%”, “serum).” for “serum, HyClone, SH30084.03).”
as §2

Question: For `CO[C@H]1C[C@H](n2c(=O)n(C)c3c(O[C@@H](C)[C@@H]4CCCN4C)nc(-c4onc5c4CCC[C@@]54CCCc5sc(N)c(C#N)c54)nc32)C1` [I-16], which IC50 is on record?
Answer: 141 nM

Question: Which IC50 does the source give for `C[C@H](Oc1nc(-c2onc3c2CCC[C@@]32CCCc3sc(N)c(C#N)c32)nc2c1[nH]c(=O)n2[C@@H]1CCOC1)[C@@H]1CCCN1C` [I-8] here?
Answer: 9 nM

Question: With `C[C@H](Oc1nc(-c2onc3c2CCC[C@@]32CCCc3sc(N)c(C#N)c32)nc2c1n(C)c(=O)n2[C@@]12COC[C@@H]1C2)[C@@H]1CCCN1C` [I-29] as the compound, how does the IC50 read?
Answer: 2 nM

Question: For `C[C@H](Oc1nc(-c2noc3c2CCC[C@@]32CCCc3sc(N)c(C#N)c32)nc2c1CCCO[C@]21CCOC1)[C@@H]1CCCN1C` [II-10], which IC50 is on record?
Answer: 5 nM

Question: With `C[C@H](Oc1nc(-c2onc3c2CCC[C@@]32CCCc3sc(N)c(C#N)c32)nc2c1n(C)c(=O)n2[C@@H]1CCCOC1)[C@@H]1CCCN1C` [I-12] as the compound, how does the IC50 read?
Answer: 6 nM

system: NCI-H727 cells; assay: NCI-H727 CTG proliferation assay (120 h) (lung cancer, G12V); format: cell-based; conditions: Homo sapiens
Description: as §1, with “NCI-H727” for “AsPC-1”, “No. CRL-5815)” for “CRL-1682)”
as §2

Question: With `CO[C@H]1C[C@H](n2c(=O)n(C)c3c(O[C@@H](C)[C@@H]4CCCN4C)nc(-c4onc5c4CCC[C@@]54CCCc5sc(N)c(C#N)c54)nc32)C1` [I-16] as the compound, how does the IC50 read?
Answer: 152 nM

Question: For `C[C@H](Oc1nc(-c2onc3c2CCC[C@@]32CCCc3sc(N)c(C#N)c32)nc2c1[nH]c(=O)n2[C@@H]1CCOC1)[C@@H]1CCCN1C` [I-8], which IC50 is on record?
Answer: 12 nM

Question: For `C[C@H](Oc1nc(-c2onc3c2CCC[C@@]32CCCc3sc(N)c(C#N)c32)nc2c1n(C)c(=O)n2[C@@]12COC[C@@H]1C2)[C@@H]1CCCN1C` [I-29], which IC50 is on record?
Answer: 1 nM

Question: Which IC50 does the source give for `C[C@H](Oc1nc(-c2noc3c2CCC[C@@]32CCCc3sc(N)c(C#N)c32)nc2c1CCCO[C@]21CCOC1)[C@@H]1CCCN1C` [II-10] here?
Answer: 7 nM

Question: With `C[C@H](Oc1nc(-c2onc3c2CCC[C@@]32CCCc3sc(N)c(C#N)c32)nc2c1n(C)c(=O)n2[C@@H]1CCCOC1)[C@@H]1CCCN1C` [I-12] as the compound, how does the IC50 read?
Answer: 3 nM
